Results on twelve compounds are retold here after US20250345458A1, “COMPLEXING AGENT SALT FORMULATIONS OF PHARMACEUTICAL COMPOUNDS AT LOW STOICHIOMETRIC RATIOS” (Bexson Biomedical, Inc., priority 2022, published 2025).

Marks after values point to notes of the source that are not given here.

A short description of data set [1]: Osmolality of API formulations (micro osmometer, triplicate). The data set is classed as physicochemical. The protocol:
Osmolality readings were obtained on an Advanced Instruments Advanced™ Micro Osmometer Model 3300 (Advanced Instruments, Inc. Norwood, MA, USA). Saline solutions (0.9% and 3%) were run as positive controls. Each sample was calculated as the mean from back-to-back triplicate measurements. When replicate batches were measured, data was reported as mean±SEM.
The procedure was performed on a 2 mL scale. […] Benzethonium chloride (20 μL of a 1% solution, 0.01% final concentration) was added via micropipette. The pH was adjusted to ˜7.00 with 2M sodium hydroxide, or either 1M or 2M HCl in some cases, and then the mixture was transferred to a 2 mL volumetric flask to be diluted with HPLC grade water. […]
Method 1: In a 5 mL borosilicate glass test tube which contained a Teflon-coated magnetic stir bar, Captisol®-Na+ ([…], H+ equivalents, moisture corrected) was dissolved in HPLC grade water (1.6-1.7 mL), API salt (HCl in most cases) (70 mg/mL FB equivalents) was added and the mixture was stirred until a homogenous transparent solution formed. Benzethonium chloride (20 μL of a 1% solution, giving a 0.01% final concentration) was added via micropipette. The pH was adjusted to ˜7.00 with 1M or 2M sodium hydroxide, or either 1M or 2M HCl in some cases, and then the mixture was transferred to a 2 mL volumetric flask to be diluted with HPLC grade water. […]
Benzethonium chloride (20 μL of a 1% solution, giving a 0.01% final concentration) was added via micropipette. The pH was adjusted to ˜7.00 with 1M or 2M sodium hydroxide, or either 1M or 2M HCl in some cases, and then the mixture transferred to a 2 mL volumetric flask to be diluted with HPLC grade water. […]
The solution was transferred to a 2 mL volumetric flask and diluted to the target volume with HPLC grade water. […]

Data set [2] in a line: pH of API formulations (pH meter). In kind it is physicochemical. The note with it: for final pH: after 2M NaOH.
For data set [3] the following is noted: in water, cited from earlier work; for Reported Freebase Solubility: vendor or literature value.
Data set [4] can be described thus: API-CapAcid salts prepared in ethanol, then 70 mg of solid added to 1 mL water (visual). The data set is classed as physicochemical. The note with it: for pH of the ethanol solution prior to titration: API FB 100 mg + CapAcid 1 molar equivalent (H^+) in 10 mL 200 proof ethanol; for dissolution of 70 mg of the ethanol-prepared API-CapAcid solid in 1 mL water: visual, vortexed.
Experimental: The resulting solid API-CapAcid salts were then obtained as solids by evaporation of the ethanol, followed by lyophilization.
In a scintillation vial, a solution of API FB (100 mg) and CapAcid (1 molar equivalent, moisture corrected) was prepared by dissolving Cap Acid in 200 proof ethanol (5 mL) and then adding the freebase API. […] Whether or not the freebase dissolved after the second addition of ethanol, the initial pH, prior to titration, was recorded. The vial was then wrapped in foil and left uncovered in the hood to allow the ethanol to evaporate. After the ethanol fully evaporated, a small amount of HPLC grade water (3-5 mL) was added to each to see if the product would dissolve or become a suspension in the water. The solution was then lyophilized to remove the water. The product was ground with a stir rod and 70±0.1 mg was added to 1 mL of water to see if it would dissolve.

A short description of data set [5]: Dissolution of API freebase in aqueous CapAcid / Captisol solutions at defined API:CapAcid ratios, visual inspection and NaOH titration. The note with it: for concentration (FB equivalents) at which the freebase dissolved: water.
A short description of data set [6]: Visual dissolution / precipitation of API free base-CapAcid formulations at stated API:CapAcid ratios. The data set is classed as physicochemical.
[7] abbreviates: API FB CapAcid formulation, 70 mg/mL API FB, 1.1 equivalents CapAcid (H^+ equivalents), after titration.
[8] abbreviates: API Salt (70 mg/mL API Salt in FB equivalent) in water.
[9] abbreviates: API salt Captisol®-Na^+ formulation, 70 mg/mL FB equivalent, 1.1 equivalents Captisol®-Na^+.
Setting [10] is: CapAcid-API Freebase Formulation (70 mg/mL API FB, 1.1 molar equivalent CapAcid), after pH titration with NaOH or HCl.
[11] abbreviates: Captisol®-Na^+ formulation, 70 mg/mL API Salt in FB equivalent, 1.1 molar equivalent Captisol®-Na^+.
[12] abbreviates: 70 mg/mL API FB, 1.1 equivalents CapAcid, before NaOH/HCl.
[13] abbreviates: 70 mg/mL API salt (FB equivalent), 1.1 equivalents Captisol®-Na^+, before NaOH.
Where [14] appears, read: CapAcid-API Freebase Formulation (70 mg/mL API FB, 1.1 molar equivalent CapAcid), final pH after titration and dilution.
[15] abbreviates: Captisol®-Na^+ formulation, 70 mg/mL API Salt in FB equivalent, 1.1 molar equivalent Captisol®-Na^+, final pH.
[16] abbreviates: API salt 70 mg/mL (FB equivalents) in water.
The mark [17] stands for this setting: 1:1 ratio of API to CapAcid (relative to the cyclodextrin).

As for `NC12CC3CC(CC(C3)C1)C2` [1-Amantadine], the Osmolality in data set [1] (setting [7]) is recorded as 411.6 mOsmol/kg; in data set [1] (setting [8]) it was 832 mOsm/kg; in data set [1] (setting [9]) it was 1,446.7 mOsmol/kg; in data set [1] (setting [10]) it was 411.6 mOsm/kg; in data set [1] (setting [11]) it was 1,446.7 mOsm/kg. Also, the “pH of the solution prior to titration” value was found to be 1.43 in data set [2] (setting [12]) and 3.93 in data set [2] (setting [13]). Besides, the pH in data set [2] (setting [8]) was determined as 5.67; in data set [2] (setting [14]), 6.97; in data set [2] (setting [15]) it was 6.99.

For the compound `NC1C2CC3CC(C2)CC1C3` (stereo not shown) [2-Amantadine], the Osmolality in data set [1] (setting [7]) is on record as 435.7 mOsmol/kg; in data set [1] (setting [8]) it was 826.7 mOsm/kg; in data set [1] (setting [9]) it was 1,492.7 mOsmol/kg; in data set [1] (setting [10]) it was 435.7 mOsm/kg; in data set [1] (setting [11]), 1492.7 mOsm/kg. For the same compound, the figures for the “pH of the solution prior to titration” value in data set [2] (setting [12]) and in data set [2] (setting [13]) were 1.29 and 5.63, respectively. Moreover, the pH is reported as 6.94 in data set [2] (setting [8]), 7.06 in data set [2] (setting [14]) and 7.01 in data set [2] (setting [15]).

`Nc1ccncc1N` [Amifampridine, Pyridine-3,4-diamine]: the Osmolality in data set [1] (70 mg/mL API FB and 1 equivalent of 6M HCl in water) is 740.3 mOsmol/kg; in data set [1] (70 mg/mL API FB, 1 equivalent of 6M HCl, 1.1 equivalents Captisol®-Na^+), 1023.3 mOsmol/kg; in data set [1] (*70 mg/mL API FB + molar equivalent of 6M HCl in water), 740.3*^ mOsm/kg; in data set [1] (setting [7]), 532.7 mOsmol/kg; in data set [1] (setting [10]) it was 532.7** mOsm/kg; in data set [1] (Captisol®-Na^+ formulation, *70 mg/mL API FB + 6M HCl, 1.1 molar equivalent Captisol®-Na^+), 1,023.3* mOsm/kg. In addition, the “pH of the solution prior to titration” value in data set [2] (70 mg/mL API FB, 1 equivalent 6M HCl, 1.1 equivalents Captisol®-Na^+, before NaOH/HCl) came to 9.27; in data set [2] (setting [12]) it was 9.19. Besides, the “Reported Freebase Solubility” value in data set [3] is 7000 µg/mL.

Turning to `COc1ccccc1OCCNCC(O)COc1cccc2[nH]c3ccccc3c12` (stereo not shown) [Carvedilol], in data set [4], the “pH of the ethanol solution prior to titration” value was 0.82 and the “dissolution of 70 mg of the ethanol-prepared API-CapAcid solid in 1 mL water” value (shortened to “dissolution of 70 mg … in 1 mL water”) is given as “insoluble solution”. In data set [4] (Method 2 solid), the “dissolution of 70 mg … in 1 mL water” value was “insoluble solution”.

With `CC[C@H](C)C[C@H](C)CCCCCCCCC(=O)N[C@H]1C[C@@H](O)[C@@H](NCCN)NC(=O)[C@@H]2[C@@H](O)CCN2C(=O)[C@H]([C@H](O)CCN)NC(=O)[C@H]([C@H](O)[C@@H](O)c2ccc(O)cc2)NC(=O)[C@@H]2C[C@@H](O)CN2C(=O)[C@H]([C@@H](C)O)NC1=O` [Caspofungin], the Osmolality was 59 mOsmol/kg in data set [1] (setting [7]); 94 mOsm/kg in data set [1] (setting [8]); 94 mOsmol/kg in data set [1] (setting [16]); 209.3 mOsmol/kg in data set [1] (setting [9]); 59** mOsm/kg in data set [1] (setting [10]); 209.3 mOsm/kg in data set [1] (setting [11]). Besides, the “pH of the solution prior to titration” value in data set [2] (setting [12]) was 7.78; in data set [2] (setting [13]), 6.13. Besides, the pH in data set [2] (setting [8]) is 5.86; in data set [2] (setting [15]), 7.04.

Take `COc1c(OCCCN2CCOCC2)ccc2c1N=C(NC(=O)c1cnc(N)nc1)N1CCN=C21` [Copanlisib]: in data set [2] (1:1 ratio of API to CapAcid), the “pH of the solution before titration” value was determined as 0.76 and the “final pH” value came out at 6.13. For the same compound, the “pH of the solution before titration” value in data set [2] (2:1 ratio of API to CapAcid) worked out at 2.10. For the same compound, in data set [4], the “pH of the ethanol solution prior to titration” value stood at 0.66 and the “dissolution of 70 mg … in 1 mL water” value is “became cloudy with a brown precipitate at the bottom”. Moreover, in data set [3], the “Reported Freebase Solubility” value is listed as “Insoluble^19” and the “Reported Salt Solubility” value is 0.023 mg/mL^18. In addition, in data set [5] (setting [17]), the “concentration (FB equivalents) at which the freebase dissolved” value was determined as 33300 µg/mL. In addition, in data set [5] (2:1 ratio of API to CapAcid, 100 mg FB in 30 mL water (3 mg/mL)), the “dissolution by visual inspection” value was “clear with a small amount of undissolved oil”. The “pH at which precipitation occurred on titration with NaOH” value in data set [5] (2:1 ratio of API to CapAcid, target 3 mg/mL) was 2.20.

As to `COc1ccc2c(c1)[C@]13CCCC[C@@H]1[C@H](C2)N(C)CC3` [DXM], the “solubility as stoichiometric (6.5:1) CapAcid salt compared with known API salts, in words” value in data set [5] (70 mg/mL formulations) is listed as “dramatic improvement in solubility”.

For the compound `COC(=O)[C@@H](N)Cc1ccc(O)c(O)c1` [Melevodopa], the Osmolality in data set [1] (setting [7]) is 605.7 mOsmol/kg; in data set [1] (setting [10]), 605.7 mOsm/kg. For the same compound, in data set [2] (setting [12]), the “pH of the solution prior to titration” value is given as 1.22. Moreover, in data set [2] (setting [14]), the pH came out at 6.97.

For the compound `Cc1ncc2n1-c1ccc(Cl)cc1C(c1ccccc1F)=NC2` [Midazolam], the “final pH of the solution” value in data set [2] (3:1 ratio, after 0.5 M HCl redissolved the solid) was 2.86. Moreover, in data set [2] (3:1 ratio, after 360 μL total 2M NaOH), the “pH when solids began to crash out” value was 2.92. The “highest achievable pH without precipitation of freebase solids” value in data set [5] (3:1 ratio of API to CapAcid (relative to the cyclodextrin), 300.8 mg FB in 10 mL water) came out at 3.15. Besides, the “dissolution by visual inspection” value is “transparent colorless solution” in data set [5] (3:1 ratio of API to CapAcid (relative to the cyclodextrin), 10 mL water) and “cloudy suggesting incomplete dissolution” in data set [5] (CapAcid 1 molar equivalent relative to H^+, 300.8 mg FB in 10 mL water, 30 minutes).

`C=CCN1CC[C@]23c4c5ccc(O)c4O[C@H]2C(=O)CC[C@@]3(O)[C@H]1C5` [Naloxone]: the Osmolality in data set [1] (setting [8]) is 279 mOsm/kg; in data set [1] (setting [16]), 279 mOsmol/kg; in data set [1] (setting [9]), 531.7 mOsmol/kg; in data set [1] (setting [10]), 139.7 mOsm/kg; in data set [1] (setting [11]), 531.7 mOsm/kg. In addition, the pH in data set [2] (setting [8]) was 4.39; in data set [2] (setting [14]), 6.01; in data set [2] (setting [15]) it was 5.98. For the same compound, in data set [3], the “Reported Freebase Solubility” value was 1415 µg/mL. Further, the “Reported Salt Solubility” value in data set [3] is given as 50 mg/mL^13. Also, the “pH past which the freebase crashed out” value in data set [5] (70 mg/mL FB, 1.1 equivalents CapAcid) is on record as over 6.00.

Take `CCC(CC)COC(=O)[C@H](C)N[P@](=O)(OC[C@H]1O[C@@](C#N)(c2ccc3c(N)ncnn23)[C@H](O)[C@@H]1O)Oc1ccccc1` [Remdesivir]: the “Reported Freebase Solubility” value in data set [3] is given as “Insoluble^15”.

Regarding `CN1CCC[C@@H]1Cc1c[nH]c2ccc(CCS(=O)(=O)c3ccccc3)cc12` [eletriptan], the “solubility compared to higher API:captisol ratio” value in data set [6] (2:1 ratio to captisol compared to 4:1 ratio) is listed as “superior solubility”. In data set [6] (4:1 ratio to captisol), the “appearance at higher API:captisol ratio” value is on record as “precipitation”. The “pH of the solution before titration” value was determined as 0.48 in data set [2] (1:1 ratio of API to CapAcid), 1.42 in data set [2] (2:1 ratio of API to CapAcid) and 2.34 in data set [2] (4:1 ratio of API to CapAcid). Besides, the “final pH” value in data set [2] (1:1 ratio of API to CapAcid) is given as 6.06; in data set [2] (2:1 ratio of API to CapAcid) it was 6.08; in data set [2] (4:1 ratio of API to CapAcid), 6.01. Also, in data set [4], the “pH of the ethanol solution prior to titration” value is 8.02. Besides, the “dissolution of 70 mg … in 1 mL water” value in data set [4] is given as “became cloudy but a large amount of oil remained at the bottom”. The “Reported Salt Solubility” value in data set [3] is listed as under 1 mg/mL^16. The “concentration (FB equivalents) at which the freebase dissolved” value in data set [5] (setting [17]) is 33300 µg/mL; in data set [5] (2:1 ratio of API to CapAcid (relative to the cyclodextrin)) it was about 8300 µg/mL. Moreover, in data set [5] (4:1 ratio of API to CapAcid, 100 mg FB in 30 mL water, stirring for 2 days), the “dissolution by visual inspection” value is “most of the FB dissolved and the solution was cloudy”.
